PubChem BioAssay (NCI)
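Compound exposure: 48 hours, 5 concentrations, 96-well plates. At the TGI there is no net growth.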

What was measured:
Experiment in all cases: NCI-60 cell line screen, 48 h
RXF 393 renal = tested on: RXF 393 renal
IGROV1 ovarian = tested on: IGROV1 ovarian
HT29 colon = tested on: HT29 colon
A549 NSCLC = tested on: A549 NSCLC
HCT-15 colon = tested on: HCT-15 colon
BT-549 breast = tested on: BT-549 breast
NCI-H23 lung = tested on: NCI-H23 lung
HCT-116 colon = tested on: HCT-116 colon
OVCAR-3 ovarian = tested on: OVCAR-3 ovarian
HS 578T breast = tested on: HS 578T breast
MALME-3M melanoma = tested on: MALME-3M melanoma
NCI-H226 lung = tested on: NCI-H226 lung
MOLT-4 leukemia = tested on: MOLT-4 leukemia
PC-3 prostate = tested on: PC-3 prostate
A498 renal = tested on: A498 renal
MDA-MB-231 breast = tested on: MDA-MB-231 breast
SN12C renal = tested on: SN12C renal
DU-145 prostate = tested on: DU-145 prostate
HOP-62 NSCLC = tested on: HOP-62 NSCLC
SF-268 CNS = tested on: SF-268 CNS
COLO 205 colon = tested on: COLO 205 colon
K-562 leukemia = tested on: K-562 leukemia
OVCAR-4 ovarian = tested on: OVCAR-4 ovarian
UACC-257 melanoma = tested on: UACC-257 melanoma
U251 CNS = tested on: U251 CNS
MDA-MB-435 = tested on: MDA-MB-435
MDA-N = tested on: MDA-N
SW-620 colon = tested on: SW-620 colon
HCC-2998 colon = tested on: HCC-2998 colon
ACHN renal = tested on: ACHN renal
SF-295 CNS = tested on: SF-295 CNS
LOX IMVI melanoma = tested on: LOX IMVI melanoma
SR leukemia = tested on: SR leukemia
SNB-75 CNS = tested on: SNB-75 CNS
SK-OV-3 ovarian = tested on: SK-OV-3 ovarian
EKVX NSCLC = tested on: EKVX NSCLC
OVCAR-5 ovarian = tested on: OVCAR-5 ovarian
T-47D breast = tested on: T-47D breast
NCI-H460 lung = tested on: NCI-H460 lung
NCI-H522 lung = tested on: NCI-H522 lung
SK-MEL-5 melanoma = tested on: SK-MEL-5 melanoma
CAKI-1 renal = tested on: CAKI-1 renal
M14 melanoma = tested on: M14 melanoma
SK-MEL-28 melanoma = tested on: SK-MEL-28 melanoma
SF-539 CNS = tested on: SF-539 CNS
MCF7 breast = tested on: MCF7 breast
SNB-19 CNS = tested on: SNB-19 CNS
786-0 renal = tested on: 786-0 renal
HOP-92 NSCLC = tested on: HOP-92 NSCLC
UO-31 renal = tested on: UO-31 renal
RPMI-8226 leukemia = tested on: RPMI-8226 leukemia
OVCAR-8 ovarian = tested on: OVCAR-8 ovarian
HL-60(TB) leukemia = tested on: HL-60(TB) leukemia
KM12 colon = tested on: KM12 colon
NCI/ADR-RES ovarian = tested on: NCI/ADR-RES ovarian
UACC-62 melanoma = tested on: UACC-62 melanoma
TK-10 renal = tested on: TK-10 renal
SK-MEL-2 melanoma = tested on: SK-MEL-2 melanoma
CCRF-CEM leukemia = tested on: CCRF-CEM leukemia

Cn1ccnc1Sc1ccc(/C=N/NC(=O)c2ccccc2[N+](=O)[O-])cc1[N+](=O)[O-]
TGI (RXF 393 renal): > 100 µM | TGI (IGROV1 ovarian): > 100 µM | TGI (HT29 colon): > 100 µM | TGI (A549 NSCLC): > 100 µM | TGI (HCT-15 colon): > 100 µM | TGI (BT-549 breast): > 100 µM | TGI (NCI-H23 lung): > 100 µM | TGI (HCT-116 colon): > 100 µM | TGI (OVCAR-3 ovarian): > 100 µM | TGI (HS 578T breast): > 100 µM | TGI (MALME-3M melanoma): > 100 µM | TGI (NCI-H226 lung): > 100 µM | TGI (MOLT-4 leukemia): > 100 µM | TGI (PC-3 prostate): > 100 µM | TGI (A498 renal): > 100 µM | TGI (MDA-MB-231 breast): 97.6 µM | TGI (SN12C renal): > 100 µM | TGI (DU-145 prostate): > 100 µM | TGI (HOP-62 NSCLC): > 100 µM | TGI (SF-268 CNS): > 100 µM | TGI (COLO 205 colon): > 100 µM | TGI (K-562 leukemia): > 100 µM | TGI (OVCAR-4 ovarian): > 100 µM | TGI (UACC-257 melanoma): > 100 µM | TGI (U251 CNS): > 100 µM | TGI (MDA-MB-435): > 100 µM | TGI (MDA-N): > 100 µM | TGI (SW-620 colon): > 100 µM | TGI (HCC-2998 colon): 95.6 µM | TGI (ACHN renal): > 100 µM | TGI (SF-295 CNS): > 100 µM | TGI (LOX IMVI melanoma): > 100 µM | TGI (SR leukemia): > 100 µM | TGI (SNB-75 CNS): > 100 µM | TGI (SK-OV-3 ovarian): > 100 µM | TGI (EKVX NSCLC): > 100 µM | TGI (OVCAR-5 ovarian): > 100 µM | TGI (T-47D breast): > 100 µM | TGI (NCI-H460 lung): > 100 µM | TGI (NCI-H522 lung): > 100 µM | TGI (SK-MEL-5 melanoma): > 100 µM | TGI (CAKI-1 renal): > 100 µM | TGI (M14 melanoma): > 100 µM | TGI (SK-MEL-28 melanoma): > 100 µM | TGI (SF-539 CNS): > 100 µM | TGI (MCF7 breast): > 100 µM | TGI (SNB-19 CNS): > 100 µM | TGI (786-0 renal): > 100 µM | TGI (HOP-92 NSCLC): > 100 µM | TGI (UO-31 renal): > 100 µM | TGI (RPMI-8226 leukemia): > 100 µM | TGI (OVCAR-8 ovarian): > 100 µM | TGI (HL-60(TB) leukemia): > 100 µM | TGI (KM12 colon): > 100 µM | TGI (NCI/ADR-RES ovarian): > 100 µM | TGI (UACC-62 melanoma): > 100 µM | TGI (TK-10 renal): > 100 µM | TGI (SK-MEL-2 melanoma): > 100 µM | TGI (CCRF-CEM leukemia): > 100 µM

COc1ccc(C(=O)/C=C2\C(=O)Nc3ccc(Br)cc32)cc1
TGI (RXF 393 renal): 5.08 µM | TGI (IGROV1 ovarian): 11.4 µM | TGI (HT29 colon): 3.28 µM | TGI (A549 NSCLC): > 51.2 µM | TGI (HCT-15 colon): 4.86 µM | TGI (BT-549 breast): 13.8 µM | TGI (NCI-H23 lung): 16.2 µM | TGI (HCT-116 colon): 8.7 µM | TGI (OVCAR-3 ovarian): 11.2 µM | TGI (HS 578T breast): 50.3 µM | TGI (MALME-3M melanoma): 34.6 µM | TGI (NCI-H226 lung): 28.6 µM | TGI (MOLT-4 leukemia): > 21.9 µM | TGI (PC-3 prostate): 23.1 µM | TGI (A498 renal): 33.7 µM | TGI (MDA-MB-231 breast): 15.5 µM | TGI (SN12C renal): 6.62 µM | TGI (DU-145 prostate): 19.9 µM | TGI (HOP-62 NSCLC): 37.9 µM | TGI (SF-268 CNS): 47.4 µM | TGI (COLO 205 colon): 4.56 µM | TGI (K-562 leukemia): > 100 µM | TGI (OVCAR-4 ovarian): 32.1 µM | TGI (UACC-257 melanoma): 25.9 µM | TGI (U251 CNS): 34.2 µM | TGI (MDA-MB-435): 27.8 µM | TGI (MDA-N): 16.7 µM | TGI (SW-620 colon): 7.83 µM | TGI (HCC-2998 colon): 12.3 µM | TGI (ACHN renal): 3.4 µM | TGI (SF-295 CNS): 30.6 µM | TGI (LOX IMVI melanoma): 4.27 µM | TGI (SR leukemia): > 21.2 µM | TGI (SNB-75 CNS): 27.8 µM | TGI (SK-OV-3 ovarian): 29.6 µM | TGI (EKVX NSCLC): 29.1 µM | TGI (OVCAR-5 ovarian): 46.1 µM | TGI (T-47D breast): 26.3 µM | TGI (NCI-H460 lung): 26.7 µM | TGI (NCI-H522 lung): 13.4 µM | TGI (SK-MEL-5 melanoma): > 50.4 µM | TGI (CAKI-1 renal): 21.4 µM | TGI (M14 melanoma): > 48.3 µM | TGI (SK-MEL-28 melanoma): 29 µM | TGI (SF-539 CNS): 25.7 µM | TGI (MCF7 breast): 21.1 µM | TGI (SNB-19 CNS): 36.2 µM | TGI (786-0 renal): 3.74 µM | TGI (HOP-92 NSCLC): 8.39 µM | TGI (UO-31 renal): 5.05 µM | TGI (RPMI-8226 leukemia): > 23.8 µM | TGI (OVCAR-8 ovarian): 4.7 µM | TGI (HL-60(TB) leukemia): 6.37 µM | TGI (KM12 colon): 9.16 µM | TGI (NCI/ADR-RES ovarian): 3.95 µM | TGI (UACC-62 melanoma): 29 µM | TGI (TK-10 renal): 3.32 µM | TGI (SK-MEL-2 melanoma): 37.4 µM | TGI (CCRF-CEM leukemia): 32.2 µM
